Measurements taken from patent publication US20230399312A1, “SUBSTITUTED PYRIMIDINES AND METHODS OF USE” (THERAVANCE BIOPHARMA R&D IP, LLC, priority 2020, published 2023).

Assays:
[1] = target: T1, recombinant human ALK5 (TGF-βR1) protein (Homo sapiens, UniProt P36897); assay: Biochemical ALK5 (TGF-βR1) assay to measure pKi (LANCE Ultra ULight kinase assay); conditions: apparent pKi, converted from pIC50 by Cheng-Prusoff
T1 construct: purchased Life Technologies PR9075A
T1 sequence (P36897 34-503): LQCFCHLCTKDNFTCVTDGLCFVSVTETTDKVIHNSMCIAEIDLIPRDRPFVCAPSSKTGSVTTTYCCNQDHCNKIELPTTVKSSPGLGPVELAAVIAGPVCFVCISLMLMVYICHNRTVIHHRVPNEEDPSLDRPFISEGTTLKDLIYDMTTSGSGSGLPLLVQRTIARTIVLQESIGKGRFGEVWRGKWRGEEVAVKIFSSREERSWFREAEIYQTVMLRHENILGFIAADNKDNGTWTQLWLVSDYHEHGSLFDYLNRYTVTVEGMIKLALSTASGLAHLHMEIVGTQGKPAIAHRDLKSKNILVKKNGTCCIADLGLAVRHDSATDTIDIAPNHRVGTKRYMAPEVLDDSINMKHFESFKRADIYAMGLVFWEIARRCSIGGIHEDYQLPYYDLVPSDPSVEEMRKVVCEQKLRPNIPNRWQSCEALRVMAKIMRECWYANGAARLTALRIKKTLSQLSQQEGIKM
Outline: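 Cmpd + enzyme, 60 min RT; ATP from 125 μM (5×) stock, 60 min 37 °C; stop 12 mM EDTA/Eu anti-pThr1342 Topo2α Ab (pH 7.0 buffer); TR-FRET 665 nm. DMSO = max, SD-208 = min signal. 4-PL pIC50 → pKi (Cheng-Prusoff).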

[2] = test system: TGF-β-stimulated SMAD3 phosphorylation in BEAS-2B cells; assay: Cellular ALK5 potency assay, inhibition of TGF-β stimulated pSMAD3 formation in BEAS-2B cells; type: cell-based; conditions: Homo sapiens, pSMAD3, TGF-β 10 ng/mL, read-out: BEAS2B pIC50 (converted)
Outline: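 Reported as pIC50, potency reflects dose-dependent loss of AlphaLISA pSMAD3 signal versus TGF-β-stimulated, compound-free BEAS-2B cells. Compound was applied for 1 h in BSA-containing HBSS buffer before a 30-min challenge with TGF-β at 10 ng/mL final.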

SMILES | Ki [1] | IC50 [2]
Cc1cccc(-c2nccc(Nc3ccnc(Nc4ccc(CN5[C@H](C)CNC[C@@H]5C)cc4)n3)n2)n1 [Compound 470, N2-[4-[[(2R,6S)-2,6-dimethylpiperazin-1-yl]methyl]phenyl]-N4-[2-(6-methyl-2-pyridyl)pyrimidin-4-yl]pyrimidine-2,4-diamine] | 0.0398 to 0.316 nM | 25.1 to 158 nM
Cc1cccc(-c2nccc(Nc3ccnc(Nc4ccc(N5CCC(CNCc6ccccc6)CC5)cc4)n3)n2)n1 [Compound 471, N2-[4-[4-[(benzylamino)methyl]-1-piperidyl]phenyl]-N4-[2-(6-methyl-2-pyridyl)pyrimidin-4-yl]pyrimidine-2,4-diamine] | 0.398 to 3.16 nM | 200 to 1260 nM
Cc1cccc(-c2nccc(Nc3ccnc(Nc4ccc(N5CCC(C(=O)OC6CCN(C)C6)CC5)cc4)n3)n2)n1 (stereo not drawn) [Compound 472, (1-methylpyrrolidin-3-yl) 1-[4-[[4-[[2-(6-methyl-2-pyridyl)pyrimidin-4-yl]amino]pyrimidin-2-yl]amino]phenyl]piperidine-4-carboxylate] | 0.0398 to 0.316 nM | 25.1 to 158 nM
Cc1cccc(-c2nccc(Nc3ccnc(Nc4ccc(N5CCN(C6CNC6)CC5)cc4)n3)n2)n1 [Compound 473, N2-[4-[4-(azetidin-3-yl)piperazin-1-yl]phenyl]-N4-[2-(6-methyl-2-pyridyl)pyrimidin-4-yl]pyrimidine-2,4-diamine] | 0.0398 to 0.316 nM | 200 to 1260 nM
Cc1cccc(-c2nccc(Nc3ccnc(Nc4ccc(CN5CCC(CO)CC5)cc4)n3)n2)n1 [Compound 474, [1-[[4-[[4-[[2-(6-methyl-2-pyridyl)pyrimidin-4-yl]amino]pyrimidin-2-yl]amino]phenyl]methyl]-4-piperidyl]methanol] | ≤ 0.0316 nM | 25.1 to 158 nM
Cc1cccc(-c2nccc(Nc3ccnc(Nc4ccc(N5CCOCC5)cc4)n3)n2)n1 [Compound 475, N4-(2-(6-methylpyridin-2-yl)pyrimidin-4-yl)-N2-(4-morpholinophenyl)pyrimidine-2,4-diamine] | 0.0398 to 0.316 nM | ≤ 20 nM
Cc1cccc(-c2nccc(Nc3ccnc(Nc4ccc(CC5CCNCC5)cc4)n3)n2)n1 [Compound 476, N4-[2-(6-methyl-2-pyridyl)pyrimidin-4-yl]-N2-[4-(4-piperidylmethyl)phenyl] pyrimidine-2,4-diamine] | 0.0398 to 0.316 nM | 25.1 to 158 nM
Cc1cccc(-c2nccc(Nc3ccnc(Nc4cccc(NC(=O)NCC5CNC5)c4)n3)n2)n1 [Compound 477, 1-(azetidin-3-ylmethyl)-3-[3-[[4-[[2-(6-methyl-2-pyridyl)pyrimidin-4-yl]amino]pyrimidin-2-yl]amino]phenyl]urea] | 0.0398 to 0.316 nM | ≤ 20 nM
Cc1cccc(-c2nccc(Nc3ccnc(Nc4ccc(N5CCN(CCN)CC5)cc4)n3)n2)n1 [Compound 478, N2-[4-[4-(2-aminoethyl)piperazin-1-yl]phenyl]-N4-[2-(6-methyl-2-pyridyl)pyrimidin-4-yl]pyrimidine-2,4-diamine] | 0.0398 to 0.316 nM | 200 to 1260 nM
Cc1cccc(-c2nccc(Nc3ccnc(Nc4ccc(N5CCCC(C(=O)O[C@@H]6CCNC6)C5)cc4)n3)n2)n1 (stereo partly drawn) [Compound 479, [(3R)-pyrrolidin-3-yl] 1-[4-[[4-[[2-(6-methyl-2-pyridyl)pyrimidin-4-yl]amino]pyrimidin-2-yl]amino]phenyl]piperidine-3-carboxylate] | 0.0398 to 0.316 nM | 25.1 to 158 nM
Cc1cccc(-c2nccc(Nc3ccnc(Nc4ccc(CN5CCNCC5(C)C)cc4)n3)n2)n1 [Compound 480, N2-[4-[(2,2-dimethylpiperazin-1-yl)methyl]phenyl]-N4-[2-(6-methyl-2-pyridyl)pyrimidin-4-yl]pyrimidine-2,4-diamine] | 0.0398 to 0.316 nM | 25.1 to 158 nM
COC(=O)C1CN(Cc2ccc(Nc3nccc(Nc4ccnc(-c5cccc(C)n5)n4)n3)cc2)CCN1C(C)C (stereo not drawn) [Compound 481, methyl 1-isopropyl-4-[[4-[[4-[[2-(6-methyl-2-pyridyl)pyrimidin-4-yl]amino]pyrimidin-2-yl]amino]phenyl]methyl] piperazine-2-carboxylate] | 0.398 to 3.16 nM | 25.1 to 158 nM
